Data: the supplement of paper PMC10883282

Legend:
Experiment in all cases: relative viability vs DMSO control (72 h) (fraction); higher = more viable cells
SW982 = test system: SW982
Summary of the method: (§1)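 A 5 µM positive control and 0.1% DMSO vehicle ran alongside sarcoma cell lines seeded in 384-well plates to reach 80–90% confluence. Serially diluted compound, 2.5 µl from source plates of 10 mM to 0.0002 mM, was added after 24 h, and the plates were held 72 h at 37 °C, 5% CO2. Relative viability was worked out from ATPLite readings as percent growth averaged over up to triplicate wells. The values were rescaled so that 1 is full and 0 is none.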

VA-ES-BJ = test system: VA-ES-BJ
Summary of the method: as §1

KHOS-240S = test system: KHOS-240S
Summary of the method: as §1

MES-SA = test system: MES-SA
Summary of the method: as §1

RD = test system: RD
Summary of the method: as §1

SK-LMS-1 = test system: SK-LMS-1
Summary of the method: as §1

SW1353 = test system: SW1353
Summary of the method: as §1

HS729 = test system: HS729
Summary of the method: as §1

A204 = test system: A204
Summary of the method: as §1

SK-ES-1 = test system: SK-ES-1
Summary of the method: as §1

SW872 = test system: SW872
Summary of the method: as §1

G401 = test system: G401
Summary of the method: as §1

CCC(=O)N1CC[C@H](Nc2ncnc3c2CN(c2cnc(OC)c(C(F)(F)F)c2)CC3)C1 [Leniolisib]
Settings	relative viability
A204, 0.00017 µM	1.04
A204, 0.00051 µM	1.06
A204, 0.00152 µM	1
A204, 0.00457 µM	1.04
A204, 0.01372 µM	1.03
A204, 0.04115 µM	1.02
A204, 0.1235 µM	1.01
A204, 0.3704 µM	0.986
A204, 1.111 µM	0.897
A204, 3.333 µM	0.768
A204, 10 µM	0.579
G401, 0.00017 µM	1.02
G401, 0.00051 µM	1
G401, 0.00152 µM	1.01
G401, 0.00457 µM	1.01
G401, 0.01372 µM	1.02
G401, 0.04115 µM	0.973
G401, 0.1235 µM	0.947
G401, 0.3704 µM	0.936
G401, 1.111 µM	0.868
G401, 3.333 µM	0.835
G401, 10 µM	0.689
HS729, 0.00017 µM	1.07
HS729, 0.00051 µM	1.02
HS729, 0.00152 µM	0.964
HS729, 0.00457 µM	0.982
HS729, 0.01372 µM	0.965
HS729, 0.04115 µM	0.95
HS729, 0.1235 µM	0.947
HS729, 0.3704 µM	0.992
HS729, 1.111 µM	0.838
HS729, 3.333 µM	0.82
HS729, 10 µM	0.675
KHOS-240S, 0.00017 µM	1.03
KHOS-240S, 0.00051 µM	1.05
KHOS-240S, 0.00152 µM	1.05
KHOS-240S, 0.00457 µM	1.06
KHOS-240S, 0.01372 µM	1.05
KHOS-240S, 0.04115 µM	1.02
KHOS-240S, 0.1235 µM	1.017
KHOS-240S, 0.3704 µM	0.997
KHOS-240S, 1.111 µM	0.975
KHOS-240S, 3.333 µM	0.9
KHOS-240S, 10 µM	0.8026
MES-SA, 0.00017 µM	0.966
MES-SA, 0.00051 µM	0.94
MES-SA, 0.00152 µM	0.932
MES-SA, 0.00457 µM	0.934
MES-SA, 0.01372 µM	0.936
MES-SA, 0.04115 µM	0.906
MES-SA, 0.1235 µM	0.922
MES-SA, 0.3704 µM	0.895
MES-SA, 1.111 µM	0.8678
MES-SA, 3.333 µM	0.786
MES-SA, 10 µM	0.585
RD, 0.00017 µM	1.08
RD, 0.00051 µM	1.09
RD, 0.00152 µM	1.11
RD, 0.00457 µM	1.11
RD, 0.01372 µM	1.12
RD, 0.04115 µM	1.09
RD, 0.1235 µM	1.09
RD, 0.3704 µM	1.11
RD, 1.111 µM	1.09
RD, 3.333 µM	1.05
RD, 10 µM	0.886
SK-ES-1, 0.00017 µM	1.04
SK-ES-1, 0.00051 µM	1.02
SK-ES-1, 0.00152 µM	1.07
SK-ES-1, 0.00457 µM	1.02
SK-ES-1, 0.01372 µM	1.04
SK-ES-1, 0.04115 µM	1.05
SK-ES-1, 0.1235 µM	1.01
SK-ES-1, 0.3704 µM	1
SK-ES-1, 1.111 µM	0.999
SK-ES-1, 3.333 µM	0.898
SK-ES-1, 10 µM	0.741
SK-LMS-1, 0.00017 µM	1.11
SK-LMS-1, 0.00051 µM	1.07
SK-LMS-1, 0.00152 µM	1.1
SK-LMS-1, 0.00457 µM	1.08
SK-LMS-1, 0.01372 µM	1.05
SK-LMS-1, 0.04115 µM	1.04
SK-LMS-1, 0.1235 µM	1.06
SK-LMS-1, 0.3704 µM	0.998
SK-LMS-1, 1.111 µM	0.939
SK-LMS-1, 3.333 µM	0.827
SK-LMS-1, 10 µM	0.712
SW872, 0.00017 µM	1.1
SW872, 0.00051 µM	1.09
SW872, 0.00152 µM	1.07
SW872, 0.00457 µM	1.06
SW872, 0.01372 µM	1.06
SW872, 0.04115 µM	1.03
SW872, 0.1235 µM	1.03
SW872, 0.3704 µM	1.03
SW872, 1.111 µM	0.951
SW872, 3.333 µM	0.907
SW872, 10 µM	0.688
SW982, 0.00017 µM	1.02
SW982, 0.00051 µM	1.05
SW982, 0.00152 µM	1.05
SW982, 0.00457 µM	1.05
SW982, 0.01372 µM	1.06
SW982, 0.04115 µM	1.06
SW982, 0.1235 µM	1.02
SW982, 0.3704 µM	1.02
SW982, 1.111 µM	0.985
SW982, 3.333 µM	0.836
SW982, 10 µM	0.678
SW1353, 0.00017 µM	1.02
SW1353, 0.00051 µM	1.04
SW1353, 0.00152 µM	0.985
SW1353, 0.00457 µM	0.999
SW1353, 0.01372 µM	0.97
SW1353, 0.04115 µM	0.9439
SW1353, 0.1235 µM	0.953
SW1353, 0.3704 µM	0.931
SW1353, 1.111 µM	0.885
SW1353, 3.333 µM	0.826
SW1353, 10 µM	0.692
VA-ES-BJ, 0.00017 µM	1.08
VA-ES-BJ, 0.00051 µM	1.09
VA-ES-BJ, 0.00152 µM	1.05
VA-ES-BJ, 0.00457 µM	1.04
VA-ES-BJ, 0.01372 µM	1.02
VA-ES-BJ, 0.04115 µM	1.06
VA-ES-BJ, 0.1235 µM	1.01
VA-ES-BJ, 0.3704 µM	1
VA-ES-BJ, 1.111 µM	0.984
VA-ES-BJ, 3.333 µM	0.88
VA-ES-BJ, 10 µM	0.645

C[C@]12O[C@H](C[C@]1(O)CO)n1c3ccccc3c3c4c(c5c6ccccc6n2c5c31)CNC4=O [Lestaurtinib]
Settings	relative viability
A204, 0.00017 µM	1.07
A204, 0.00051 µM	1.07
A204, 0.00152 µM	1.07
A204, 0.00457 µM	1.02
A204, 0.01372 µM	0.967
A204, 0.04115 µM	0.788
A204, 0.1235 µM	0.56
A204, 0.3704 µM	0.378
A204, 1.111 µM	0.321
A204, 3.333 µM	0.277
A204, 10 µM	0.118
G401, 0.00017 µM	1.01
G401, 0.00051 µM	0.985
G401, 0.00152 µM	1.03
G401, 0.00457 µM	1.02
G401, 0.01372 µM	1.03
G401, 0.04115 µM	0.996
G401, 0.1235 µM	0.985
G401, 0.3704 µM	0.912
G401, 1.111 µM	0.718
G401, 3.333 µM	0.023
G401, 10 µM	0.00583
HS729, 0.00017 µM	1.05
HS729, 0.00051 µM	1
HS729, 0.00152 µM	1.01
HS729, 0.00457 µM	0.932
HS729, 0.01372 µM	0.863
HS729, 0.04115 µM	0.797
HS729, 0.1235 µM	0.757
HS729, 0.3704 µM	0.723
HS729, 1.111 µM	0.619
HS729, 3.333 µM	0.411
HS729, 10 µM	0.207
KHOS-240S, 0.00017 µM	1.086
KHOS-240S, 0.00051 µM	1.06
KHOS-240S, 0.00152 µM	1.1
KHOS-240S, 0.00457 µM	1.04
KHOS-240S, 0.01372 µM	1.06
KHOS-240S, 0.04115 µM	1.05
KHOS-240S, 0.1235 µM	0.892
KHOS-240S, 0.3704 µM	0.525
KHOS-240S, 1.111 µM	0.345
KHOS-240S, 3.333 µM	0.169
KHOS-240S, 10 µM	0.0619
MES-SA, 0.00017 µM	0.966
MES-SA, 0.00051 µM	0.928
MES-SA, 0.00152 µM	0.947
MES-SA, 0.00457 µM	0.947
MES-SA, 0.01372 µM	0.874
MES-SA, 0.04115 µM	0.751
MES-SA, 0.1235 µM	0.538
MES-SA, 0.3704 µM	0.333
MES-SA, 1.111 µM	0.2911
MES-SA, 3.333 µM	0.164
MES-SA, 10 µM	0.00447
RD, 0.00017 µM	1.05
RD, 0.00051 µM	1.064
RD, 0.00152 µM	1.09
RD, 0.00457 µM	1.09
RD, 0.01372 µM	1.1
RD, 0.04115 µM	1.06
RD, 0.1235 µM	1.01
RD, 0.3704 µM	0.892
RD, 1.111 µM	0.645
RD, 3.333 µM	0.326
RD, 10 µM	0.126
SK-ES-1, 0.00017 µM	1.1
SK-ES-1, 0.00051 µM	1.06
SK-ES-1, 0.00152 µM	1.07
SK-ES-1, 0.00457 µM	1
SK-ES-1, 0.01372 µM	0.881
SK-ES-1, 0.04115 µM	0.543
SK-ES-1, 0.1235 µM	0.329
SK-ES-1, 0.3704 µM	0.0863
SK-ES-1, 1.111 µM	0.0742
SK-ES-1, 3.333 µM	0.0554
SK-ES-1, 10 µM	0.0776
SK-LMS-1, 0.00017 µM	1.08
SK-LMS-1, 0.00051 µM	1.1
SK-LMS-1, 0.00152 µM	1.06
SK-LMS-1, 0.00457 µM	1.04
SK-LMS-1, 0.01372 µM	1.01
SK-LMS-1, 0.04115 µM	0.878
SK-LMS-1, 0.1235 µM	0.722
SK-LMS-1, 0.3704 µM	0.669
SK-LMS-1, 1.111 µM	0.541
SK-LMS-1, 3.333 µM	0.353
SK-LMS-1, 10 µM	0.146
SW872, 0.00017 µM	1.08
SW872, 0.00051 µM	1.07
SW872, 0.00152 µM	1.04
SW872, 0.00457 µM	1.03
SW872, 0.01372 µM	0.955
SW872, 0.04115 µM	0.803
SW872, 0.1235 µM	0.648
SW872, 0.3704 µM	0.507
SW872, 1.111 µM	0.358
SW872, 3.333 µM	0.267
SW872, 10 µM	0.0094
SW982, 0.00017 µM	1.03
SW982, 0.00051 µM	1.03
SW982, 0.00152 µM	1.06
SW982, 0.00457 µM	1.03
SW982, 0.01372 µM	0.895
SW982, 0.04115 µM	0.697
SW982, 0.1235 µM	0.494
SW982, 0.3704 µM	0.381
SW982, 1.111 µM	0.314
SW982, 3.333 µM	0.23
SW982, 10 µM	0.0243
SW1353, 0.00017 µM	1.04
SW1353, 0.00051 µM	1.01
SW1353, 0.00152 µM	1
SW1353, 0.00457 µM	0.975
SW1353, 0.01372 µM	0.943
SW1353, 0.04115 µM	0.868
SW1353, 0.1235 µM	0.756
SW1353, 0.3704 µM	0.698
SW1353, 1.111 µM	0.6462
SW1353, 3.333 µM	0.375
SW1353, 10 µM	0.155
VA-ES-BJ, 0.00017 µM	1.06
VA-ES-BJ, 0.00051 µM	1.06
VA-ES-BJ, 0.00152 µM	1.06
VA-ES-BJ, 0.00457 µM	1.03
VA-ES-BJ, 0.01372 µM	0.953
VA-ES-BJ, 0.04115 µM	0.838
VA-ES-BJ, 0.1235 µM	0.657
VA-ES-BJ, 0.3704 µM	0.544
VA-ES-BJ, 1.111 µM	0.42
VA-ES-BJ, 3.333 µM	0.176
VA-ES-BJ, 10 µM	-0.00757
